Experimental data as given in publication PMC4416786, “Validation of a P-Glycoprotein (P-gp) Humanized Mouse Model by Integrating Selective Absolute Quantification of Human MDR1, Mouse Mdr1a and Mdr1b Protein Expressions with In Vivo Functional Analysis for Blood-Brain Barrier Transport” (PLoS ONE, 2015).
Read-outs that look alike come from different tables or passages of the source.

Legend:
P-gp [1] = tested on: P-gp; set-up: method as in PMID 16850390; conditions: cited from earlier work
human P-gp (hMDR1) [2] = conditions: digoxin 1 mg/kg s.c.; blocker one hour before digoxin
Description: (§1) The total brain concentration (ng/g brain tissue) of the substance was divided with the total plasma concentration (ng/ml) of the substance to obtain the tissue partition ratio (Kp), which was compared between the groups of mice. […] The the fraction unbound in plasma (fu, p) measured with equilibrium dialysis was used in the calculations.

P-gp [3] = target: T1, P-gp (Mus musculus, UniProt P21447); conditions: C57BL/6 WT mice, oxycodone 1 mg/kg s.c., cyclosporine A 100 mg/kg i.p., verapamil 3 mg/kg s.c. or elacridar 6 mg/kg s.c. one hour before
T1 sequence (P21447 whole entry): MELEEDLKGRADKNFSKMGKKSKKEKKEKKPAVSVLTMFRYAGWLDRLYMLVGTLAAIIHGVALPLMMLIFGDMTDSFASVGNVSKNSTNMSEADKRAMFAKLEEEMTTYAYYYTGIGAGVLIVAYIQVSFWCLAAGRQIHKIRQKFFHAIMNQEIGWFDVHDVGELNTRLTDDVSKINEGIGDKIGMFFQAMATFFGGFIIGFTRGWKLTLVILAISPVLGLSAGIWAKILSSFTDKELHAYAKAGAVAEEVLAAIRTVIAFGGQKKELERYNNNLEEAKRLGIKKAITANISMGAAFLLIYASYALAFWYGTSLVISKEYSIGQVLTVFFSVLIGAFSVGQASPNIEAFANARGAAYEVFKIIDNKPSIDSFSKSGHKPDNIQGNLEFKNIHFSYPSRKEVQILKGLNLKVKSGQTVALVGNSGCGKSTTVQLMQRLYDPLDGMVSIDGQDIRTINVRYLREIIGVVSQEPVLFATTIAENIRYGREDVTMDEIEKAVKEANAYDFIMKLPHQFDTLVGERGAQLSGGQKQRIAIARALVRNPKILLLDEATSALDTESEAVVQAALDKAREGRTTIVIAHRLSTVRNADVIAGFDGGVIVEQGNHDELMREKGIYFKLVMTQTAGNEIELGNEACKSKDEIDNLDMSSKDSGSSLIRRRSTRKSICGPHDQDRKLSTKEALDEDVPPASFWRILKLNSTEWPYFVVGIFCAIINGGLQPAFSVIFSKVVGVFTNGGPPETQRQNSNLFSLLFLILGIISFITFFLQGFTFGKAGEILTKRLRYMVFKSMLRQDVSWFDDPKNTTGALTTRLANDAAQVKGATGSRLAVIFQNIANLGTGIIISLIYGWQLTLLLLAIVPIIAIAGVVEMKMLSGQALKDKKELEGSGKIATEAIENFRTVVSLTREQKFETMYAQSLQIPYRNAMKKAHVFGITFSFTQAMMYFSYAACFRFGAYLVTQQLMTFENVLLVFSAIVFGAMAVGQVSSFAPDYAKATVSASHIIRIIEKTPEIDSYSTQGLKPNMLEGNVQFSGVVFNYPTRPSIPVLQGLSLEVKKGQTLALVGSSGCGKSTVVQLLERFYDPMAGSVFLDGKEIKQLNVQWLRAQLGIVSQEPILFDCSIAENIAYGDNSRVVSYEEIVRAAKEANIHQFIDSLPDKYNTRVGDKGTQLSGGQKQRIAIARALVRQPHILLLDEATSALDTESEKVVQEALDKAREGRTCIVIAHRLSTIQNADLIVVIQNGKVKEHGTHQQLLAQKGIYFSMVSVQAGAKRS
Description: Brain and liver were sampled after sacrificing the animal.
as §1

in vitro = assay: in vitro
Experimental: Equilibrium dialysis was performed to measure the plasma unbound fraction of the drugs studied, and to measure possible differences in the plasma protein binding between hMDR1 and C57BL/6 WT mice. A high throughput, 96 well equilibrium dialysis apparatus (Model HTD96b, HTDialysis, Connecticut, USA) with dialysis membrane strips with a molecular weight cut-off of 12–14 kDa was used. The concentrations of the substances were the same as those achieved in plasma during the in vivo experiments. One side of each well used was loaded with 125 μl of plasma spiked with drug and the other side was loaded with 125 μl phosphate buffer saline (PBS). The top surface of the Teflon block was then sealed with an adhesive film. […] Triplicates of the same concentration for each compound were measured. After the incubation period 80 μl from the buffer side was added into 80 μl of blank mouse plasma and 80 μl from the plasma was added into 80 μl of PBS. Samples were stored at -20 until analysis.

mouse P-gp = mouse P-gp (Mus musculus, UniProt P21447); assay: in vivo; conditions: C57BL/6, mouse
mouse P-gp, sequence (P21447 whole entry): as above

[4] = C57BL/6, mouse, 5 h, 200 nM
human P-gp (hMDR1) [5] = assay: in vivo; conditions: hMDR1 (MDR1 humanized), mouse
human P-gp (hMDR1) [6] = conditions: mouse, in vivo
P-gp [7] = target: T1, P-gp; conditions: in vivo
Experimental: Brain to plasma total concentration ratios (Kp) of the substances were measured for each animal. Unbound volume of distribution in brain (Vu, brain) was measured with the brain slice method [14] and fraction unbound in plasma (fu, p) was measured with high throughput equilibrium dialysis.
All the substances were administered subcutaneously except docetaxel, which was given intravenously in the tail vein as a slow injection over five minutes due to its tissue irritating character. […] The volume administered of all substances was 0.01 ml/g_body weight.
Blood was collected with a pre-heparinized syringe by cardiac puncture and was centrifuged for 5 minutes at 10000 rpm to obtain plasma. Brain was also sampled. The brain was divided in two equal parts and frozen on dry ice before weighed. All the samples were stored at -80°C until analysis.
as §1

P-gp [8] = conditions: rats; cited from earlier work
P-gp [9] = target: T1, P-gp; set-up: hMDR1 and C57BL/6 WT mice; from tissue; host or cells: blood-brain barrier (brain capillaries) of living male C57BL/6 WT mice; method as in PMID 7910522; conditions: cited from earlier work
P-gp [10] = tested on: P-gp; set-up: method as in PMID 19047468; conditions: PET imaging; cited from earlier work
[11] = hMDR1 (MDR1 humanized), mouse, plasma

## COc1cc2c(cc1OC)CN(CCc1ccc(NC(=O)c3cccc4c(=O)c5cccc(OC)c5[nH]c34)cc1)CC2 [Elacridar]
P-gp [1]
  Blood concentration needed in guinea pigs to obtain the same inhibition as in rats and mice: higher blood concentration
Human P-gp (hMDR1) [2]
  Digoxin Kp in hMDR1 mice compared to C57BL/6 WT controls when treated with the blocker: significantly higher
P-gp [3]
  Effect of the P-gp blocker on oxycodone Kp: not changed
P-gp [3]; listed as elacridar (GF120918)
  Effect of the P-gp blocker on oxycodone Kp: no effect

## C=C[C@H]1C[N@@]2CC[C@H]1C[C@@H]2[C@@H](O)c1ccnc2ccc(OC)cc12 [Quinidine, Quinidine gluconate]
Human P-gp (hMDR1) [2]
  Digoxin Kp in hMDR1 mice compared to C57BL/6 WT controls when treated with the blocker: significantly higher

## CC(=O)O[C@@]12CO[C@@H]1C[C@H](O)[C@@]1(C)C(=O)[C@H](O)C3=C(C)[C@@H](OC(=O)[C@H](O)[C@@H](NC(=O)OC(C)(C)C)c4ccccc4)C[C@@](O)([C@@H](OC(=O)c4ccccc4)[C@H]21)C3(C)C [Docetaxel]
In vitro; C57BL/6, mouse, plasma
  fraction unbound: 0.053
In vitro; [11]
  fraction unbound: 0.052
Mouse P-gp
  Kp uu at 1 h: 0.002
[4]
  Vu, brain: 789 ml/g_brain
  Vu, brain (nonspecific binding to brain parenchymal tissue): 789 ml*g_brain^-1
Human P-gp (hMDR1) [5]
  Kp uu at 1 h: 0.003
Human P-gp (hMDR1) [6]
  Kp in hMDR1 mice relative to C57BL/6 WT mice: 2 times
P-gp [7]
  Kp in Mdr1a/1b(-/-) mice relative to FVB WT controls: 4 times

## C/C=C/C[C@@H](C)C(=O)[C@H]1C(=O)N[C@@H](C(C)C)C(=O)N(C)CC(=O)N(C)[C@@H](CC(C)C)C(=O)N[C@@H](C(C)C)C(=O)N(C)[C@@H](CC(C)C)C(=O)N[C@@H](C)C(=O)N[C@H](C)C(=O)N(C)[C@@H](CC(C)C)C(=O)N(C)[C@@H](CC(C)C)C(=O)N(C)[C@@H](C(C)C)C(=O)N1C [PSC833]
P-gp [8]
  Effect of the P-gp blocker on the tail-flick latency of oxycodone: no effect

## COc1ccc2c3c1O[C@H]1C(=O)CC[C@@]4(O)[C@@H](C2)N(C)CC[C@]314 [Oxycodone]
In vitro; C57BL/6, mouse
  fraction unbound: 0.681
In vitro; hMDR1 (MDR1 humanized), mouse
  fraction unbound: 0.681

## CC[C@]1(O)C[C@@H]2CN(CCc3c([nH]c4ccccc34)[C@@](C(=O)OC)(c3cc4c(cc3OC)N(C)[C@H]3[C@@](O)(C(=O)OC)[C@H](OC(C)=O)[C@]5(CC)C=CCN6CC[C@]43[C@@H]65)C2)C1 [vinblastine]
P-gp [9]
  Sensitivity of Mdr1a(-/-) mice compared to wild type controls: 3 fold

## O=C(c1ccc([18F])cc1)C1CCN(CCn2c(=S)[nH]c3ccccc3c2=O)CC1 [[18F]altanserine]
P-gp [10]
  Brain penetration in humans relative to rodents: 4.5 times

## C[C@H]1O[C@@H](O[C@H]2[C@@H](O)C[C@H](O[C@H]3[C@@H](O)C[C@H](O[C@H]4CC[C@@]5(C)[C@H](CC[C@@H]6[C@@H]5C[C@@H](O)[C@]5(C)[C@@H](C7=CC(=O)OC7)CC[C@]65O)C4)O[C@@H]3C)O[C@@H]2C)C[C@H](O)[C@@H]1O [Digoxin]
In vitro; C57BL/6, mouse, plasma
  fraction unbound: 0.594
In vitro; [11]
  fraction unbound: 0.607
